Activity calls are given as the source filed them. Cut-off read from the data, not from the text of the source, for most assays here: actives have a measured Kd and inactives only a lower limit.
Columns and labels:
[1] = molecular target: T1, Discoidin domain-containing receptor 2 (Homo sapiens, UniProt Q16832)
T1 sequence (Q16832 whole entry): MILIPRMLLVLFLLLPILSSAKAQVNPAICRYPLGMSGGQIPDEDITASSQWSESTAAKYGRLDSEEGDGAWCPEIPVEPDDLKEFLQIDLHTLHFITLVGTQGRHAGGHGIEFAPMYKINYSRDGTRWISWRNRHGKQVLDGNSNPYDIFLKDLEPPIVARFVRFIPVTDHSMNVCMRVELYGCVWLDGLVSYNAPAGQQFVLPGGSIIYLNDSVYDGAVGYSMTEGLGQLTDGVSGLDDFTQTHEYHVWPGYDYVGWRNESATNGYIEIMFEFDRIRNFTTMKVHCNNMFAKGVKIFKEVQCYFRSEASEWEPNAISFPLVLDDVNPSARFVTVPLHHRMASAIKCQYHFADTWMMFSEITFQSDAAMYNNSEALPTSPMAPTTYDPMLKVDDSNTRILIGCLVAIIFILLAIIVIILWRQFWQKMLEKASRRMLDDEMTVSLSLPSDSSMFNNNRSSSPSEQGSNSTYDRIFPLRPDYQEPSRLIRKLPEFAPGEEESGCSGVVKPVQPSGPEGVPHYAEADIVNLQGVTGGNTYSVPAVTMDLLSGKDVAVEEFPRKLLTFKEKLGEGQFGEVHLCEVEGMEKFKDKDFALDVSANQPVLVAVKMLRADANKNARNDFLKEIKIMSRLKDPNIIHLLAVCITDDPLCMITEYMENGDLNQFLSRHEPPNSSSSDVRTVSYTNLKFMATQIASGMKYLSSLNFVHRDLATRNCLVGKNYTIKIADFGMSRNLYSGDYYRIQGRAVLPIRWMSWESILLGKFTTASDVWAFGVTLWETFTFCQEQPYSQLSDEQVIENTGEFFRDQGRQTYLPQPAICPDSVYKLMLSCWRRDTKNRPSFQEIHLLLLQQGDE

[2] = molecular target: cAMP-dependent protein kinase catalytic subunit beta (Homo sapiens, UniProt P22694)
[3] = molecular target: Rho-associated protein kinase 2 (Homo sapiens, UniProt O75116)
Sequence of Rho-associated protein kinase 2 (O75116 whole entry): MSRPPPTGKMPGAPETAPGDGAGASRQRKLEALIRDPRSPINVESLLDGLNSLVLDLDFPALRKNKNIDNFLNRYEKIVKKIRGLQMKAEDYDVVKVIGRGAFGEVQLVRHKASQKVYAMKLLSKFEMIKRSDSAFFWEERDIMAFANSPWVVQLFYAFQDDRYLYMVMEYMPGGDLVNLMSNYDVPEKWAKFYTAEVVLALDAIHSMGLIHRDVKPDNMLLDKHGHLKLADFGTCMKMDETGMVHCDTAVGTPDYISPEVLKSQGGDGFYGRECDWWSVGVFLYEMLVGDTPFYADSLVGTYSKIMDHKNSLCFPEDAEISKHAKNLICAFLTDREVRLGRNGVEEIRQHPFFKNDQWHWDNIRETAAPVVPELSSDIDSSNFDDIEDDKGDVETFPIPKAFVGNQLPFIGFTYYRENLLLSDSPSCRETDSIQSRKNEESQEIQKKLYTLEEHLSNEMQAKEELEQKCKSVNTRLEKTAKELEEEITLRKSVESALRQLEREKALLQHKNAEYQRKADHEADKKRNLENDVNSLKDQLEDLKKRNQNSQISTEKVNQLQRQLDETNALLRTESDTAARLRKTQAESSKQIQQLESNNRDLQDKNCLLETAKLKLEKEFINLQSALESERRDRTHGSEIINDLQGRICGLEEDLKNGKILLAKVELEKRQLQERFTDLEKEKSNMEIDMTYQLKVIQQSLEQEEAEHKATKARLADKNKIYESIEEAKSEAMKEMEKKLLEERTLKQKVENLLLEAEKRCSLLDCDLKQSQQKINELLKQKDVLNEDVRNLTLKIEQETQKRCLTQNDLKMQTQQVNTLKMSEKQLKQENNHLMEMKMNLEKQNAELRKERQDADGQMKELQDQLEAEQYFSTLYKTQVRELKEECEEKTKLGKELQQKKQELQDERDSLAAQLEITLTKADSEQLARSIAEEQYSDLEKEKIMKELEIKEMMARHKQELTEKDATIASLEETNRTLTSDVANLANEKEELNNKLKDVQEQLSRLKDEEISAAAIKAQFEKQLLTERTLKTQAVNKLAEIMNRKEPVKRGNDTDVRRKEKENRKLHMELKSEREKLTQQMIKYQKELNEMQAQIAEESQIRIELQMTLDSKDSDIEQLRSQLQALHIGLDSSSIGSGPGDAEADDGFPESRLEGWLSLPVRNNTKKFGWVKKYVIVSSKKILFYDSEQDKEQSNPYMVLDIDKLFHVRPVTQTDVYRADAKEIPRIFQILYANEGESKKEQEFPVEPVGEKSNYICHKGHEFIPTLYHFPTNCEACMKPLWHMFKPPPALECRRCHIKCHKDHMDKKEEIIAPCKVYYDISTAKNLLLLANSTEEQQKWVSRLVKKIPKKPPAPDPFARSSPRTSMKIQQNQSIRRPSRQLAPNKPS

[4] = molecular target: Tyrosine-protein kinase Lck (Homo sapiens, UniProt P06239)
Sequence of Tyrosine-protein kinase Lck (P06239 whole entry): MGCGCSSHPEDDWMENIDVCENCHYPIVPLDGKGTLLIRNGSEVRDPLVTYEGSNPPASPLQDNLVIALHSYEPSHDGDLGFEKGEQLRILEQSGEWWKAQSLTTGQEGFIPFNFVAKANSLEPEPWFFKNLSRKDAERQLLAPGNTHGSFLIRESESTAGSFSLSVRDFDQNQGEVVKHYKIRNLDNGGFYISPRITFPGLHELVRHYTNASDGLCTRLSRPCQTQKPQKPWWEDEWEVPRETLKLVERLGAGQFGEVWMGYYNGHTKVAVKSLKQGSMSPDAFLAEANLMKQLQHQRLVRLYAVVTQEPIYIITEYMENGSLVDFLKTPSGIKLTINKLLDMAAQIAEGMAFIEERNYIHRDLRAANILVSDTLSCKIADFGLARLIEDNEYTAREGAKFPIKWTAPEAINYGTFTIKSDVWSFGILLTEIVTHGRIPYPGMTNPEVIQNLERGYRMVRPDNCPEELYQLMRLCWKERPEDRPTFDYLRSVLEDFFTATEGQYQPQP

[5] = molecular target: T2, Serine/threonine-protein kinase D3 (Homo sapiens, UniProt O94806)
T2 sequence (O94806 whole entry): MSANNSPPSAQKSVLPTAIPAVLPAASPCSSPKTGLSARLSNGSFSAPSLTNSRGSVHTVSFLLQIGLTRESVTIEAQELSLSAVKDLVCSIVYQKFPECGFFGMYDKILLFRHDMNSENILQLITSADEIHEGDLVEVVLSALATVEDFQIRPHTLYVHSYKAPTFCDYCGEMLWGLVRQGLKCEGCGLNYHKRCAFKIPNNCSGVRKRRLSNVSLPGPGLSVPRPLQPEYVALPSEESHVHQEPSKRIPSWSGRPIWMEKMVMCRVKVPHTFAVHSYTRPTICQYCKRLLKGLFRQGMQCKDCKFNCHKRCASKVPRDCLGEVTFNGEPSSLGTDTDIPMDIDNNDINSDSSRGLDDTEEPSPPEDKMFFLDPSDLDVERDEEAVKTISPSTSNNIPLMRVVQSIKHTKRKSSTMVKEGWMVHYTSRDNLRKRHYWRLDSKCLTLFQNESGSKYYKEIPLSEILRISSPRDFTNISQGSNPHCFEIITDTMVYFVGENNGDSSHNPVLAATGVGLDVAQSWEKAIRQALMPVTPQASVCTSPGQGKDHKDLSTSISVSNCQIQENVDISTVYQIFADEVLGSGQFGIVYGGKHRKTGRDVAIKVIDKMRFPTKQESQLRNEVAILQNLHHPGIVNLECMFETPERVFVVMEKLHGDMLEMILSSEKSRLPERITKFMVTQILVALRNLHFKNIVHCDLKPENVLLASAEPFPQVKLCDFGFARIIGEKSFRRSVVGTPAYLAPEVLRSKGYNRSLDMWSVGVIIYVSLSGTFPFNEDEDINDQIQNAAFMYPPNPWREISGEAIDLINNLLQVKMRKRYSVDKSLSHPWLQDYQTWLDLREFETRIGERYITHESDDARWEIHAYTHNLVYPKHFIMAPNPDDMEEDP

[6] = molecular target: Serine/threonine-protein kinase PAK 4 (Homo sapiens, UniProt O96013)
Sequence of Serine/threonine-protein kinase PAK 4 (O96013 whole entry): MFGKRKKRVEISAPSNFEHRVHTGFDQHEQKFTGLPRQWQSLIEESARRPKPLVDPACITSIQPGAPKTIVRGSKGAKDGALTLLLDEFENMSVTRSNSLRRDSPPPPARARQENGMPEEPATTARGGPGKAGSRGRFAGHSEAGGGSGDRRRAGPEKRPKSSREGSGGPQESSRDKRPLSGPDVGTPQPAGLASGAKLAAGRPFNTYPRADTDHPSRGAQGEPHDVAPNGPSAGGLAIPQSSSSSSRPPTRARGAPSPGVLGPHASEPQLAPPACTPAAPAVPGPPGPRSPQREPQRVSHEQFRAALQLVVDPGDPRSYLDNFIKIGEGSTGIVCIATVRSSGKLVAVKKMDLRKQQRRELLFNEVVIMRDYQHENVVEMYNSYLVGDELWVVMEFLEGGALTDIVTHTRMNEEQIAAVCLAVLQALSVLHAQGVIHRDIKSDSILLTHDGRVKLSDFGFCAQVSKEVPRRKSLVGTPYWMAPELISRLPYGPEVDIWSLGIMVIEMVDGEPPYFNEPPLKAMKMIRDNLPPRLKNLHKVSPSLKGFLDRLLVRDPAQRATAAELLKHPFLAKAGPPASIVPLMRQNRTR

[7] = molecular target: Calcium/calmodulin-dependent protein kinase type II subunit delta (Homo sapiens, UniProt Q13557)
Sequence of Calcium/calmodulin-dependent protein kinase type II subunit delta (Q13557 whole entry): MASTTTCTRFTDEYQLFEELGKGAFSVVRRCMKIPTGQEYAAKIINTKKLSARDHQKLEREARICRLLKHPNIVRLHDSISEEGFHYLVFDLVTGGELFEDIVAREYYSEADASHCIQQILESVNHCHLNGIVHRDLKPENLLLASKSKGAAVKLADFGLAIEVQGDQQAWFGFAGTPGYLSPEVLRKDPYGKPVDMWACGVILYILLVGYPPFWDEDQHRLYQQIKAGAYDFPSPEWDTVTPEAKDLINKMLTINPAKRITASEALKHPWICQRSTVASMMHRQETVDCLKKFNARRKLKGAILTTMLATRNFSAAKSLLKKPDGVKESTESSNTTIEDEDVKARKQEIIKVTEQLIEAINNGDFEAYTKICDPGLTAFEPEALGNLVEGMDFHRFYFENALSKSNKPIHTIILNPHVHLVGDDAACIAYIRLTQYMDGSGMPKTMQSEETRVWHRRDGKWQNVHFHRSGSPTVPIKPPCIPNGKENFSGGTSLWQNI

[8] = molecular target: Serine/threonine-protein kinase MRCK beta (Homo sapiens, UniProt Q9Y5S2)
[9] = molecular target: T3, Serine/threonine-protein kinase 4 (Homo sapiens, UniProt Q13043)
T3 sequence (Q13043 whole entry): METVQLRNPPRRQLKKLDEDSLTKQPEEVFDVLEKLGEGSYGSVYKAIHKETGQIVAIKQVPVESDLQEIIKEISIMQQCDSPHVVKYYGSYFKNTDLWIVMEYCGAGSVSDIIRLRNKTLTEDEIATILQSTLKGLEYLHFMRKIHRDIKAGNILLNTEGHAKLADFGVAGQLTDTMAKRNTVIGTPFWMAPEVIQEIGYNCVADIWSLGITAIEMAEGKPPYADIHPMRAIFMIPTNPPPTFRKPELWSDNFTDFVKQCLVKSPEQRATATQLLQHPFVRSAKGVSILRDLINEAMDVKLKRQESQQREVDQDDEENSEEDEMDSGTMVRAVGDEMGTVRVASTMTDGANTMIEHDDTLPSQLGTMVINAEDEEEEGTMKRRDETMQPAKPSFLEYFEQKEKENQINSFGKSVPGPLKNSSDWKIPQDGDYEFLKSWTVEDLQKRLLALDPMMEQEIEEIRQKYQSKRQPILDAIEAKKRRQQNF

[10] = molecular target: Proto-oncogene tyrosine-protein kinase receptor Ret (Homo sapiens, UniProt P07949)
Sequence of Proto-oncogene tyrosine-protein kinase receptor Ret (P07949 whole entry): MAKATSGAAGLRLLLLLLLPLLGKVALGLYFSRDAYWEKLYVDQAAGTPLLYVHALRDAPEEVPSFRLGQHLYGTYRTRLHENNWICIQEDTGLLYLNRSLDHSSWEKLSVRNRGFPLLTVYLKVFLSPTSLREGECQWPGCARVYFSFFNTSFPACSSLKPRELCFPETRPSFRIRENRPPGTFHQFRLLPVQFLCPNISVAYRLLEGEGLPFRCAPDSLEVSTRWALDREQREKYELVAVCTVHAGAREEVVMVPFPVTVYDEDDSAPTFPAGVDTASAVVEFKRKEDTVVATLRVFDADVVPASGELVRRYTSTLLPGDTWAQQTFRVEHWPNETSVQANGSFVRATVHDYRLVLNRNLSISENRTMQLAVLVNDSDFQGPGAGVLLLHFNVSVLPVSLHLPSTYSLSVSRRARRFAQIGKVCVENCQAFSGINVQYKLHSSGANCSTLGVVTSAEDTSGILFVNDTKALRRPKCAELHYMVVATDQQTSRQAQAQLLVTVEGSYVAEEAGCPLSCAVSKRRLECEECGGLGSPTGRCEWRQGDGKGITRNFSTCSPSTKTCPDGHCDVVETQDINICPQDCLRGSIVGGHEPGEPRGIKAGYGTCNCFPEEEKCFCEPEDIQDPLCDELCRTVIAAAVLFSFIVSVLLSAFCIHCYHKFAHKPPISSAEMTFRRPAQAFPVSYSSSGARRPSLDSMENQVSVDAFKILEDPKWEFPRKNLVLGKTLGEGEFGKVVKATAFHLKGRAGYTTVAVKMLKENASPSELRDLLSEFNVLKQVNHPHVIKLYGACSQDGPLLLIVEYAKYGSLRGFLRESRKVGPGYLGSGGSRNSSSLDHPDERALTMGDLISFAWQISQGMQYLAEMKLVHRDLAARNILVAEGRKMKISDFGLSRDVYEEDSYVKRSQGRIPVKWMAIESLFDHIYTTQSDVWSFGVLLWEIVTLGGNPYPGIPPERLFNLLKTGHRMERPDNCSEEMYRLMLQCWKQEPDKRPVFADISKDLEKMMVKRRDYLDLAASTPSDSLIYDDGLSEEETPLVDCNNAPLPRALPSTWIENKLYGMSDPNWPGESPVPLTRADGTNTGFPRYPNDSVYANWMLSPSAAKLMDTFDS
Note: in the data inactive means no Kd found up to 30 µM.

| Kd [1] | Kd [2] | Kd [3] | Kd [4] | Kd [5] | Kd [6] | Kd [7] | Kd [8] | Kd [9] | Kd [10] | Compound |
| --- | --- | --- | --- | --- | --- | --- | --- | --- | --- | --- |
| > 30 µM (inactive) | > 30 µM (inactive) | > 30 µM (inactive) | > 30 µM (inactive) | > 30 µM (inactive) | > 30 µM (inactive) | > 30 µM (inactive) | > 30 µM (inactive) | > 30 µM (inactive) | > 30 µM (inactive) | Cc1cc(C(=O)NOCCO)c(Nc2ccc(I)cc2F)n(C)c1=O [AZD-8330] |
| > 30 µM (inactive) | > 30 µM (inactive) | > 30 µM (inactive) | > 30 µM (inactive) | > 30 µM (inactive) | > 30 µM (inactive) | > 30 µM (inactive) | > 30 µM (inactive) | > 30 µM (inactive) | > 30 µM (inactive) | CCn1c(C(=O)N(C2CC2)C2CC2)cc2c3c(ncn3C)c(Nc3cc(C)n(C)n3)nc21 [BMS-911543] |

Second part, the compound before the results:

| Compound | Kd [1] | Kd [2] | Kd [3] | Kd [4] | Kd [5] | Kd [6] | Kd [7] | Kd [8] | Kd [9] | Kd [10] |
| --- | --- | --- | --- | --- | --- | --- | --- | --- | --- | --- |
| C[C@@H](Oc1cc(C(=O)Nc2ccc(C(=O)N3CCN(C)CC3)cc2)nnc1N)c1c(Cl)ccc(F)c1Cl | > 30 µM (inactive) | > 30 µM (inactive) | > 30 µM (inactive) | > 30 µM (inactive) | > 30 µM (inactive) | > 30 µM (inactive) | > 30 µM (inactive) | > 30 µM (inactive) | > 30 µM (inactive) | > 30 µM (inactive) |
| C[C@H]1CNCCCN1S(=O)(=O)c1cccc2cncc(F)c12 | > 30 µM (inactive) | > 30 µM (inactive) | 0.083 µM (active) | > 30 µM (inactive) | > 30 µM (inactive) | > 30 µM (inactive) | > 30 µM (inactive) | > 30 µM (inactive) | > 30 µM (inactive) | > 30 µM (inactive) |
| CC(=O)c1cnc2ccc(-c3cc(Cl)c(O)c(Cl)c3)nc2c1N[C@H]1CC[C@H](CN(C)C)CC1 | 2.28 µM (active) | > 30 µM (inactive) | > 30 µM (inactive) | 0.073 µM (active) | 0.093 µM (active) | 0.515 µM (active) | > 30 µM (inactive) | > 30 µM (inactive) | 0.067 µM (active) | 0.028 µM (active) |
| C=CC(=O)N1CCC[C@H](n2c(=O)n(-c3ccc(Oc4ccccc4)cc3)c3c(N)ncnc32)C1 | > 30 µM (inactive) | > 30 µM (inactive) | > 30 µM (inactive) | 0.005 µM | > 30 µM (inactive) | > 30 µM (inactive) | > 30 µM (inactive) | > 30 µM (inactive) | > 30 µM (inactive) | > 30 µM (inactive) |
| Cc1nc2cc(-c3nn(C(C)C)c4ncnc(N)c34)ccc2o1 | 0.139 µM (active) | > 30 µM (inactive) | > 30 µM (inactive) | > 30 µM (inactive) | > 30 µM (inactive) | > 30 µM (inactive) | > 30 µM (inactive) | > 30 µM (inactive) | > 30 µM (inactive) | 1.6 µM (active) |
| COCc1c(-c2ccc(NC(=O)Nc3cc(C(F)(F)F)ccc3F)c(F)c2)c2c(N)ncnn2c1CN1CCOCC1 | 3.25 µM (active) | > 30 µM (inactive) | > 30 µM (inactive) | > 30 µM (inactive) | > 30 µM (inactive) | > 30 µM (inactive) | > 30 µM (inactive) | > 30 µM (inactive) | > 30 µM (inactive) | 0.093 µM (active) |
| Nc1ncnc2c1c(-c1cccc(OCc3ccccc3)c1)cn2[C@H]1C[C@@H](CN2CCC2)C1 [AEW-541] | > 30 µM (inactive) | > 30 µM (inactive) | 18.3 µM (active) | > 30 µM (inactive) | > 30 µM (inactive) | > 30 µM (inactive) | > 30 µM (inactive) | > 30 µM (inactive) | 3.77 µM (active) | 23.2 µM (active) |
| Cc1nc(NC(=O)N2CCC[C@H]2C(N)=O)sc1-c1ccnc(C(C)(C)C(F)(F)F)c1 [ALPELISIB] | > 30 µM (inactive) | > 30 µM (inactive) | > 30 µM (inactive) | > 30 µM (inactive) | > 30 µM (inactive) | > 30 µM (inactive) | > 30 µM (inactive) | > 30 µM (inactive) | > 30 µM (inactive) | > 30 µM (inactive) |
| Cc1csc(-c2nnc(Nc3ccc(Oc4ncccc4-c4ccnc(N)n4)cc3)c3ccccc23)c1 [AMG-900] | 0.298 µM (active) | > 30 µM (inactive) | > 30 µM (inactive) | > 30 µM (inactive) | 1.91 µM (active) | > 30 µM (inactive) | > 30 µM (inactive) | > 30 µM (inactive) | > 30 µM (inactive) | 1.14 µM (active) |
| C=CC(=O)Nc1cc2c(Nc3ccc(F)c(Cl)c3)ncnc2cc1C#CC(C)(C)N1CCN(C)CC1 [AV-412 FREE BASE] | > 30 µM (inactive) | > 30 µM (inactive) | > 30 µM (inactive) | > 30 µM (inactive) | > 30 µM (inactive) | > 30 µM (inactive) | > 30 µM (inactive) | > 30 µM (inactive) | > 30 µM (inactive) | > 30 µM (inactive) |
| COc1cc([C@@H]2c3cc4c(cc3[C@H](O)[C@H]3COC(=O)[C@@H]23)OCO4)cc(OC)c1OC [AXL-1717] | > 30 µM (inactive) | > 30 µM (inactive) | > 30 µM (inactive) | > 30 µM (inactive) | > 30 µM (inactive) | > 30 µM (inactive) | > 30 µM (inactive) | > 30 µM (inactive) | > 30 µM (inactive) | > 30 µM (inactive) |
| NC(=O)Nc1cc(-c2cccc(F)c2)sc1C(=O)N[C@H]1CCCNC1 [AZD-7762] | > 30 µM (inactive) | > 30 µM (inactive) | > 30 µM (inactive) | 1.29 µM (active) | 2.14 µM (active) | 0.166 µM (active) | > 30 µM (inactive) | > 30 µM (inactive) | 0.056 µM (active) | 0.023 µM (active) |
| Cn1cnc2c(F)c(Nc3ccc(Br)cc3F)c(C(=O)NOCCO)cc21 [BINIMETINIB] | > 30 µM (inactive) | > 30 µM (inactive) | > 30 µM (inactive) | > 30 µM (inactive) | > 30 µM (inactive) | > 30 µM (inactive) | > 30 µM (inactive) | > 30 µM (inactive) | > 30 µM (inactive) | > 30 µM (inactive) |

— ChEMBL document CHEMBL3991601, “The target landscape of clinical kinase drugs” (Science, 2017)
